Laboratory results reported in publication PMC9114115, “Property space mapping of Pseudomonas aeruginosa permeability to small molecules” (Scientific Reports, 2022).
Counter-ions that a name gives are not always drawn.

Assays:
[1] = test system: P. aeruginosa PAO1-Pore cells; experiment: LC–MS quantification of intracellular accumulation, PAO1-Pore; settings: 10-80 µM; for Concentration slopes of accumulation, PAO1-Pore_1 min: 1 min incubation; for Concentration slopes of accumulation, PAO1-Pore_40 min: 40 min incubation
Protocol: (§1) PAO1-Pore and PΔ3-Pore were grown at 37 °C overnight with shaking at 225 rpm in 50 mM MOPS-M9 (pH 7.2) Minimal Medium supplemented with 1% glycerol[42],[43].
(§2) The next day, cells were sub-cultured (1.5:100) in fresh MOPS-M9 medium and grown for 16 h. The cultures were then split into two flasks and one of them was induced with 0.1 mM IPTG. Cells incubated for additional 4 h until OD600 reached ~ 1.0 and harvested by centrifugation at 3,275xg for 20 min in RT, washed and concentrated 10X in the spent medium. Assays were performed in 96-well plates in a final volume of […]. Cells were incubated with 10, 20, 40, 80 µM of compounds and after 1- and 40-min incubation at RT, 100 µL cell aliquots were collected by vacuum filtration onto 1.0 µm Glass Fiber Type B filters. For no-cell controls, compounds were diluted to 10, 20, 40, 80 µM final concentration in the same medium, incubated for 1 min and 40 min and filtered onto the same plates. The cell loaded and cell-free filters were dried, removed from plates and placed into 100% methanol at -80 °C for at least 10 min. Filter-bound material was extracted by water bath sonication for 1 min. Cell and filter debris were separated by ultracentrifugation at 45,000 rpm (TLA55 rotor, Beckman) for 8 min at 16 °C and the pellet re-extracted with 80% methanol in water by sonication for 15 min followed by ultracentrifugation at the same conditions. Supernatants from two extractions were combined. For the compound quantification, 5 µL of solution was analyzed in triplicate.
(§3) Calibration curves for MS analyses of compounds were generated in the same experiment by mixing compound at increasing concentrations with the sonicated PAO1 cell extracts. […] Azithromycin was used as a positive control in all experiments.
(§4) Samples were processed in positive ion mode. An Eclipse plus C18 Rapid Resolution HD column (1.8 μm, 2.1 × 50 mm, Agilent, USA) was used for separation. The flow rate was 0.6 mL/min using the following gradient: 0 to 1 min (0- 20% ACN), 1 to 4 min (20- 80% ACN), 4 to 5.1 min (80–100% ACN), 5.1 to 6.30 (100% ACN). Solvents contained 0.1% formic acid to promote positive ion formation in the electrospray. […] Data were analyzed using Agilent Masshunter workstation quantitative analysis v. B.10 software.

P. aeruginosa PAO1 cells = experiment: LC–MS quantification of intracellular accumulation, PAO1; settings: 10-80 µM; for Concentration slopes of accumulation, PAO1_1 min: 1 min incubation; for Concentration slopes of accumulation, PAO1_40 min: 40 min incubation
Protocol: as §1, §2, §3, §4

[2] = test system: P. aeruginosa PΔ3-Pore cells; experiment: LC–MS quantification of intracellular accumulation, PΔ3-Pore; settings: 10-80 µM; for Concentration slopes of accumulation, PΔ3-Pore_1 min: 1 min incubation; for Concentration slopes of accumulation, PΔ3-Pore_40min: 40 min incubation
Protocol: as §1, §2, §3, §4

P. aeruginosa PΔ3 cells = settings: 10-80 µM; for Concentration slopes of accumulation, PΔ3_1 min: 1 min incubation; for Concentration slopes of accumulation, PΔ3_40 min: 40 min incubation
Protocol: as §1, §2, §3, §4
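Further: slope of accumulation versus external concentration fitted as a line through zero.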

SMILES | Concentration slopes of accumulation, PAO1-Pore_1 min [1] | Concentration slopes of accumulation, PAO1-Pore_40 min [1] | Concentration slopes of accumulation, PAO1_1 min (P. aeruginosa PAO1 cells) | Concentration slopes of accumulation, PAO1_40 min (P. aeruginosa PAO1 cells) | Concentration slopes of accumulation, PΔ3-Pore_1 min [2] | Concentration slopes of accumulation, PΔ3-Pore_40min [2] | Concentration slopes of accumulation, PΔ3_1 min (P. aeruginosa PΔ3 cells) | Concentration slopes of accumulation, PΔ3_40 min (P. aeruginosa PΔ3 cells)
COc1ccc(CCN(C)CCCC(C#N)(c2ccc(OC)c(OC)c2)C(C)C)cc1OC (stereo not drawn) [OU-0000734, Verapamil HCl] | 16.77 | 15.63 | 12.96 | 13.17 | 17.77 | 18.38 | 12.95 | 12.00
O=C1CC2(CCCC2)CC(=O)N1CCCCN1CCN(c2ncccn2)CC1 [OU-0000735, Buspirone HCl] | 7.76 | 7.56 | 6.08 | 7.21 | 9.57 | 9.56 | 6.98 | 6.60
O=C(c1ccc(OCCN2CCCCC2)cc1)c1c(-c2ccc(O)cc2)sc2cc(O)ccc12 [OU-0000741, Raloxifene HCl] | 56.66 | 52.80 | 45.85 | 26.99 | 83.30 | 77.54 | 69.39 | 35.59
COCCCC/C(=N\OCCN)c1ccc(C(F)(F)F)cc1 [OU-0000742, Fluvoxamine] | 6.04 | 6.15 | 3.55 | 4.45 | 6.28 | 6.18 | 4.15 | 4.97
CC(CCc1ccccc1)NCC(O)c1ccc(O)c(C(N)=O)c1 (stereo not drawn) [OU-0000748, Labetalol HCl] | 21.98 | 21.99 | 15.94 | 14.89 | 23.35 | 22.27 | 17.87 | 22.85
CC(Cc1ccc(O)cc1)NCC(O)c1cc(O)cc(O)c1 (stereo not drawn) [OU-0000755, Fenoterol HBr] | 1.22 | 2.13 | 1.15 | 1.72 | 2.02 | 2.24 | 2.24 | 1.99
CCOC(=O)NC(=S)Nc1ccccc1NC(=S)NC(=O)OCC [OU-0000837, Thiophanate] | 3.05 | 1.80 | 3.24 | 3.72 | 14.84 | 13.42 | 3.05 | 1.80
CNC(=C[N+](=O)[O-])NCCSCc1ccc(CN(C)C)o1 [OU-0000840, Ranitidine HCl] | 4.44 | 5.25 | 3.41 | 2.83 | 5.13 | 1.37 | 2.62 | 3.53
NC(N)=Nc1nc(CSCCC(N)=NS(N)(=O)=O)cs1 [OU-0000841, Famotidine] | 3.94 | 2.86 | 4.64 | 5.28 | 6.27 | 4.45 | 4.40 | 4.38
CC[C@H]1CN2CCc3cc(OC)c(OC)cc3[C@@H]2C[C@@H]1C[C@H]1NCCc2cc(OC)c(OC)cc21.Cl.Cl [OU-0032504, Emetine DIHCl] | 1.29 | 1.17 | 0.61 | 0.65 | 1.71 | 1.61 | 1.07 | 0.76
CCN1CCCC1CNC(=O)c1cc(S(N)(=O)=O)ccc1OC.Cl (stereo not drawn) [OU-0032505, Sulpiride HCl] | 7.04 | 7.90 | – | – | 7.14 | 7.60 | 6.18 | 6.27
COc1ccc2cc1Oc1ccc(cc1)C[C@H]1c3cc(c(OC)cc3CCN1C)Oc1c(OC)c(OC)cc3c1[C@H](C2)N(C)CC3 [OU-0032506, Tetrandrine] | 10.07 | 7.33 | 5.68 | 5.34 | 11.59 | 8.93 | 7.92 | 5.95
CC(C)NCC(O)c1ccc(NS(C)(=O)=O)cc1 (stereo not drawn) [OU-0032507, Sotalol HCl] | 8.24 | 3.55 | 4.31 | 4.58 | 15.87 | 9.07 | 3.77 | 2.90
O=C1NC[C@@H](CCC2CCCCC2)N[C@H]1Cc1cc(F)cc(F)c1 [OU-0032508] | 20.38 | 23.85 | – | – | 20.49 | 21.97 | 14.00 | 12.40
CCCC[C@H]1CNC(=O)[C@H](Cc2cc(F)cc(F)c2)N1 [OU-0032509] | 23.40 | 20.61 | – | – | 27.36 | 24.02 | 14.12 | 18.21
